Tests used:
[1] = test system: leukocyte cells (mono and polymorphonuclear) in co-culture with cells isolated from primary human tumors; experiment: Marker expression (IHC) in leukocytes co-cultured with primary human tumor cells (colon, pancreatic, lung carcinoma, glioma, melanoma); type: cell-based; settings: SP 1 μM + antagonist 1 μM;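 further: tumor cells and leukocytes came from the same patients, co-culture contents were paraffin-embedded for immunohistochemistry with antibodies to TGF-β2 or NF-kB, leukocytes cultured alone served as control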
Procedure: To check that the interaction of the human primary tumor cells with cells of the immune/inflammatory (mono and polymorphonuclear leukocytes) cells, stimulates the secretion of substances of importance for survival and tumor progression, cultures were carried out using sets of immune cells/inflammatory (mono and polymorphonuclear leukocytes) with tumor cells obtained directly from primary human tumors of the same patients.
The same method described in Example 7 and 9 was used to obtain tumor cells from primary human tumors. Similarly cultured immune cells/inflammatory (mono and polymorphonuclear leukocytes) were used as control and secondly, cultured tumor cells isolated from patients in the presence of immune cells/inflammatory (mono and polymorphonuclear leukocytes).
Then, paraffin blocks were prepared with the contents of each of the groups mentioned previously for expression studies using immunohistochemistry. On this occasion, in order to identify the secretion of substances with importance for the survival and progression of tumor the following markers were analyzed: TGF-β2 (SAB4502956) and NF-kB (SAB4501992) using specific antibodies against them. All antibodies used were rabbit polyclonal antibodies obtained from Sigma Aldrich and were used at a concentration of 1/1000. Immunohistochemical techniques were performed and evaluated as described in previous examples.

[2] = test system: fibroblasts (PHF) co-cultured with tumor cells of human pancreatic adenocarcinoma (CAPAN-1); experiment: Marker expression (IHC) in PHF co-cultured with CAPAN-1 tumor cells; type: cell-based; settings: co-culture with CAPAN-1; SP 1 μM + antagonist 1 μM; 48 h;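 further: cultures grown in fresh plasma from a healthy human donor, run in six replicates, value is percent of fibroblasts positive for each marker, compared with fibroblasts cultured alone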
Procedure: (§1) All cultures were maintained 48 hours, following which the same cells were included in paraffin blocks for subsequent analysis of the expression of different markers by immunohistochemistry (see Example 1). The primary antibodies used to perform immunohistochemical assays and their concentration are detailed in Example 2. All experiments were carried out sixfold. Analyzed markers in fibroblast cells (stromal cells) were: TGF-α, TGF-β1, TGF-β2, TGF-β3, SPARC, MMP-3, MMP-7, MMP-9, MMP-11, MMP-13 and MMP-14.

[3] = test system: fibroblasts (PHF) co-cultivated with tumor cell lymphoblastic leukemia B (SDI); experiment: Marker expression (IHC) in PHF co-cultured with SDI tumor cells; type: cell-based, human; settings: PHF co-cultivated with SDI + SP + NK1 antagonist
Procedure: (§2) All cultures were maintained 48 hours, following which the same cells were included in paraffin blocks for subsequent analysis of the expression of different markers by immunohistochemistry (see Example 1). […] All experiments were carried out sixfold. Analyzed markers in fibroblast cells (stromal cells) were: TGF-α, TGF-β1, TGF-β2, TGF-β3, SPARC, MMP-3, MMP-7, MMP-9, MMP-11, MMP-13 and MMP-14.

[4] = test system: fibroblasts (PHF) cells co-cultured with human T lymphoma tumor (DERL-7); experiment: Marker expression (IHC) in PHF co-cultured with DERL-7 tumor cells; type: cell-based; settings: PHF co-cultured with DERL-7 + SP + NK1 antagonist
Procedure: as §1

[5] = test system: fibroblasts (PHF) co-cultured with tumor cells, ovarian carcinoma (EFO-27); experiment: Marker expression (IHC) in PHF co-cultured with EFO-27 tumor cells; type: cell-based, human; settings: co-culture with EFO-27; SP 1 μM + antagonist 1 μM; 48 h;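 further: values are the percentage of PHF fibroblasts positive for each marker, cultured in fresh plasma from a healthy human donor, each experiment run in six replicates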
Procedure: as §2

[6] = test system: fibroblasts (PHF) co-cultured with human glioma tumor cells (GAMG); experiment: Marker expression (IHC) in PHF co-cultured with GAMG tumor cells; type: cell-based; settings: co-culture with GAMG; SP 1 μM + antagonist 1 μM; 48 h;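 further: percentage of PHF fibroblasts positive for each marker, cultured in fresh plasma from a healthy donor, six replicates, with fibroblasts cultured alone as reference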
Procedure: as §2

[7] = test system: fibroblasts (PHF) co-cultured with tumor cells, thyroid carcinoma; experiment: Marker expression (IHC) in PHF co-cultured with thyroid carcinoma tumor cells; type: cell-based, human; settings: co-culture with thyroid carcinoma cells; SP 1 μM + antagonist 1 μM; 48 h;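 further: grown in fresh plasma from a healthy human donor, read-out is percent of fibroblasts positive for each marker, compared with fibroblasts cultured alone, run in six replicates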
Procedure: as §2

[8] = test system: fibroblasts (PHF) co-cultured with tumor cells, thyroid carcinoma (reference A-427); experiment: as above; type: cell-based, human; settings: co-culture with thyroid carcinoma cells; SP 1 μM + antagonist 1 μM; 48 h
Procedure: as §2

[9] = test system: fibroblast cells in co-culture with cells isolated from primary human tumors; experiment: Marker expression (IHC) in fibroblasts co-cultured with primary human tumor cells (colon, pancreatic, lung carcinoma, glioma, multiple myeloma); type: cell-based
Procedure: To check that the interaction of the human primary tumor cells with stromal cells, [human fibroblasts,] stimulates the secretion of substances of importance for survival and tumor progression, co-cultures were performed using stromal cells with human fibroblast-tumor cells obtained directly from primary human tumors.
On this occasion, in order to identify, using immunohistochemical techniques, the secretion of substances of importance for the survival and progression of tumors, the following antibodies were used: TGF-α (SAB4502953), TGF-β1 (SAB4502954), TGF-β2 (SAB4502956), TGF-β3 (SAB4502957), SPARC (HPA002989), MMP-3 (HPA007875), MMP-7 (SAB4501894), MMP-9 (SAB4501896), MMP-11 (SAB4501898) MMP-13 (SAB4501900) and MMP-14 (SAB4501901) using specific antibodies against them. All antibodies used were rabbit polyclonal antibodies obtained from Sigma-Aldrich and were used at a concentration of 1/1000 to achieve these immunohistochemical studies. All experiments were carried out sixfold.

[10] = co-culture with cells isolated from colon carcinoma
[11] = co-culture with cells isolated from glioma
[12] = co-culture with cells isolated from lung carcinoma
[13] = co-culture with cells isolated from melanoma
[14] = co-culture with cells isolated from pancreatic carcinoma
[15] = Primary tumor cells (colon carcinoma) co-cultured + fibroblast + SP (1 μM) + NK1 antagonist 1 μM
[16] = co-culture with cells isolated from glioma, SP 1 μM + antagonist 1 μM
[17] = co-culture with cells isolated from lung cancer, SP 1 μM + antagonist 1 μM
[18] = co-culture with cells isolated from multiple myeloma, SP 1 μM + antagonist 1 μM
[19] = co-culture with cells isolated from pancreatic carcinoma, SP 1 μM + antagonist 1 μM

Cc1cc(F)ccc1[C@H]1CNCCN1C(=O)N(C)[C@H](C)c1cc(C(F)(F)F)cc(C(F)(F)F)c1 [Vestipitant]
0%: Percentage of mononuclear leukocytes cells which expressed NF-kB [1, 10] | Percentage of mononuclear leukocytes cells which expressed TGF-β [1, 10] | Percentage of polymorphonuclear leukocytes cells which expressed NF-kB [1, 10] | Percentage of polymorphonuclear leukocytes cells which expressed TGF-β [1, 10] | Percentage of mononuclear leukocytes cells expressing NF-kB [1, 11] | Percentage of mononuclear leukocytes cells expressing TGF-β [1, 11] | Percentage of polymorphonuclear leukocytes cells expressing NF-kB [1, 11] | Percentage of polymorphonuclear leukocytes cells expressing TGF-β [1, 11] | Percentage of mononuclear leukocytes cells which expressed NF-kB [1, 12] | Percentage of mononuclear leukocytes cells which expressed TGF-β [1, 12] | Percentage of polymorphonuclear leukocytes cells which expressed NF-kB [1, 12] | Percentage of polymorphonuclear leukocytes cells which expressed TGF-β [1, 12] | Percentage of mononuclear leukocytes cells which expressed NF-kB [1, 13] | Percentage of mononuclear leukocytes cells which expressed TGF-β [1, 13] | Percentage of polymorphonuclear leukocytes cells which expressed NF-kB [1, 13] | Percentage of polymorphonuclear leukocytes cells which expressed TGF-β [1, 13] | Percentage of mononuclear leukocytes cells which expressed NF-kB [1, 14] | Percentage of mononuclear leukocytes cells which expressed TGF-β [1, 14] | Percentage of polymorphonuclear leukocytes cells which expressed NF-kB [1, 14] | Percentage of polymorphonuclear leukocytes cells which expressed TGF-β [1, 14] | PHF cells expressing MMP-3 [2] | PHF cells expressing MMP-7 [2] | PHF cells expressing MMP-9 [2] | PHF cells expressing MMP-11 [2] | PHF cells expressing MMP-13 [2] | PHF cells expressing MMP-14 [2] | PHF cells expressing SPARC [2] | PHF cells expressing TGF-α [2] | PHF cells expressing TGF-β1 [2] | PHF cells expressing TGF-β2 [2] | PHF cells expressing TGF-β3 [2] | cells expressing MMP-3 [3] | cells expressing MMP-7 [3] | cells expressing MMP-9 [3] | cells expressing MMP-11 [3] | cells expressing MMP-13 [3] | cells expressing MMP-14 [3] | cells expressing SPARC [3] | cells expressing TGF-α [3] | cells expressing TGF-β1 [3] | cells expressing TGF-β2 [3] | cells expressing TGF-β3 [3] | cells expressing MMP-3 [4] | cells expressing MMP-7 [4] | cells expressing MMP-9 [4] | cells expressing MMP-11 [4] | cells expressing MMP-13 [4] | cells expressing MMP-14 [4] | cells expressing SPARC [4] | cells expressing TGF-α [4] | cells expressing TGF-β1 [4] | cells expressing TGF-β2 [4] | cells expressing TGF-β3 [4] | PHF cells expressing MMP-3 [5] | PHF cells expressing MMP-7 [5] | PHF cells expressing MMP-9 [5] | PHF cells expressing MMP-11 [5] | PHF cells expressing MMP-13 [5] | PHF cells expressing MMP-14 [5] | PHF cells expressing SPARC [5] | PHF cells expressing TGF-α [5] | PHF cells expressing TGF-β1 [5] | PHF cells expressing TGF-β2 [5] | PHF cells expressing TGF-β3 [5] | PHF cells expressing MMP-3 [6] | PHF cells expressing MMP-7 [6] | PHF cells expressing MMP-9 [6] | PHF cells expressing MMP-11 [6] | PHF cells expressing MMP-13 [6] | PHF cells expressing MMP-14 [6] | PHF cells expressing SPARC [6] | PHF cells expressing TGF-α [6] | PHF cells expressing TGF-β1 [6] | PHF cells expressing TGF-β2 [6] | PHF cells expressing TGF-β3 [6] | PHF cells expressing MMP-11 [7] | PHF cells expressing MMP-3 [8] | PHF cells expressing MMP-7 [8] | PHF cells expressing MMP-9 [8] | PHF cells expressing MMP-13 [8] | PHF cells expressing MMP-14 [8] | PHF cells expressing SPARC [8] | PHF cells expressing TGF-α [8] | PHF cells expressing TGF-β1 [8] | PHF cells expressing TGF-β2 [8] | PHF cells expressing TGF-β3 [8] | Percentage of fibroblast cells which expressed MMP-3 [9, 15] | Percentage of fibroblast cells which expressed MMP-7 [9, 15] | Percentage of fibroblast cells which expressed MMP-9 [9, 15] | Percentage of fibroblast cells which expressed MMP-11 [9, 15] | Percentage of fibroblast cells which expressed MMP-13 [9, 15] | Percentage of fibroblast cells which expressed MMP-14 [9, 15] | Percentage of fibroblast cells which expressed SPARC [9, 15] | Percentage of fibroblast cells which expressed TGFα [9, 15] | Percentage of fibroblast cells which expressed TGFβ1 [9, 15] | Percentage of fibroblast cells which expressed TGFβ2 [9, 15] | Percentage of fibroblast cells which expressed TGFβ3 [9, 15] | Percentage of fibroblast cells which expressed MMP-3 [9, 16] | Percentage of fibroblast cells which expressed MMP-7 [9, 16] | Percentage of fibroblast cells which expressed MMP-9 [9, 16] | Percentage of fibroblast cells which expressed MMP-11 [9, 16] | Percentage of fibroblast cells which expressed MMP-13 [9, 16] | Percentage of fibroblast cells which expressed MMP-14 [9, 16] | Percentage of fibroblast cells which expressed SPARC [9, 16] | Percentage of fibroblast cells which expressed TGFα [9, 16] | Percentage of fibroblast cells which expressed TGFβ1 [9, 16] | Percentage of fibroblast cells which expressed TGFβ2 [9, 16] | Percentage of fibroblast cells which expressed TGFβ3 [9, 16] | Percentage of fibroblast cells which expressed MMP-3 [9, 17] | Percentage of fibroblast cells which expressed MMP-7 [9, 17] | Percentage of fibroblast cells which expressed MMP-9 [9, 17] | Percentage of fibroblast cells which expressed MMP-11 [9, 17] | Percentage of fibroblast cells which expressed MMP-13 [9, 17] | Percentage of fibroblast cells which expressed MMP-14 [9, 17] | Percentage of fibroblast cells which expressed SPARC [9, 17] | Percentage of fibroblast cells which expressed TGFα [9, 17] | Percentage of fibroblast cells which expressed TGFβ1 [9, 17] | Percentage of fibroblast cells which expressed TGFβ2 [9, 17] | Percentage of fibroblast cells which expressed TGFβ3 [9, 17] | Percentage of fibroblast cells which expressed MMP-3 [9, 18] | Percentage of fibroblast cells which expressed MMP-7 [9, 18] | Percentage of fibroblast cells which expressed MMP-9 [9, 18] | Percentage of fibroblast cells which expressed MMP-11 [9, 18] | Percentage of fibroblast cells which expressed MMP-13 [9, 18] | Percentage of fibroblast cells which expressed MMP-14 [9, 18] | Percentage of fibroblast cells which expressed SPARC [9, 18] | Percentage of fibroblast cells which expressed TGFα [9, 18] | Percentage of fibroblast cells which expressed TGFβ1 [9, 18] | Percentage of fibroblast cells which expressed TGFβ2 [9, 18] | Percentage of fibroblast cells which expressed TGFβ3 [9, 18] | Percentage of fibroblast cells which expressed MMP-3 [9, 19] | Percentage of fibroblast cells which expressed MMP-7 [9, 19] | Percentage of fibroblast cells which expressed MMP-9 [9, 19] | Percentage of fibroblast cells which expressed MMP-11 [9, 19] | Percentage of fibroblast cells which expressed MMP-13 [9, 19] | Percentage of fibroblast cells which expressed MMP-14 [9, 19] | Percentage of fibroblast cells which expressed SPARC [9, 19] | Percentage of fibroblast cells which expressed TGFα [9, 19] | Percentage of fibroblast cells which expressed TGFβ1 [9, 19] | Percentage of fibroblast cells which expressed TGFβ2 [9, 19] | Percentage of fibroblast cells which expressed TGFβ3 [9, 19]

Reference: patent US20180071317A1, “USE OF AGENTS THAT ALTER THE PERITUMORAL ENVIRONMENT FOR THE TREATMENT OF CANCER” (SERVICIO ANDALUZ DE SALUD, priority 2011, published 2018)
